Assay results taken from patent publication US9999218B2, “Pest control formulations and methods of making and using same” (0903608 B.C. Ltd., priority 2011, dated 2018).
Like-named read-outs stand apart in the source and are kept apart here.

What was measured:
bed bug eggs [1] = assay type: in vivo, Cimex lectularius L.
Description: Immediately after infestation, and at 1-, 2-, and 3-week intervals thereafter, the numbers of hatched and unhatched eggs present in the sealed dishes were counted and compared to other Treated Groups. One egg was counted as “hatched” for every new nymph present in the petri dish when compared with the prior interval. Table 13 compares the % egg eclosion of the treated groups at the 3-week observation interval. The maximum mortality data obtained in Example 3, above, are included for comparison purposes.

adult bed bugs [2] = assay type: in vivo
adult bed bugs [3] = settings: […] neem oil + […] named solvent in isopropanol, 4 h dried in highly-ventilated room; for Max. Mortality: observed until 14 days
Method: This example illustrates the dry residual pesticidal activity of formulations including neem oil and various organic solvents including alcohols, ketones, esters and carboxylic acids. […] The percent by weight of each solvent was varied to ensure a consistent molar quantity of solvent in each solution. Treated Groups for each solution were prepared by treating filter paper, 90 mm in diameter, with 1.0 mL of solution and allowing it to air dry for four hours in a highly-ventilated room. A known number of adults were added to each treated dish, four hours after treatment. Bed bug mortality was assessed immediately after infestation and at 1-hour, 2-hour, 4-hour, 6-hour, 8-hour, 10-hour, 12-hour, and 24-hour intervals, and at 24-hour intervals thereafter until 14 days after infestation. Adult bed bugs were counted dead if they were unresponsive when stimulated.

bed bug eggs [4] = experiment: Prevention of egg emergence by various pesticidal natural oils (Example 11); assay type: in vivo, Cimex lectularius L.; settings: […] by weight oil with 5.0% acetophenone; all observation intervals
Method: Five bed bug eggs were added to each treated dish, two hours after treatment. Immediately after infestation, and at 1-, 2-, and 3-week intervals thereafter, the numbers of hatched and unhatched eggs present in the sealed dishes were counted and compared to other Treated Groups. One egg was counted as “hatched” for every new nymph present in the petri dish when compared with the prior interval. Table 12 compares the mean % egg eclosion of the treated groups at three weeks post-infestation. The maximum mortality data obtained in Example 2, above, are included for each formulation, for comparison purposes.

adult bed bugs [5] = settings: in vivo
Method: This example illustrates the dry residual pesticidal activity of formulations comprising further pesticidal natural oils (thyme, garlic and neem oils) with acetophenone as the polar aromatic solvent. Solutions were prepared using 5.5% by weight natural oil; the percentage by weight of organic solvent indicated in Table 20 and an appropriate amount of isopropanol as a carrier diluent. Solvent was added to a final concentration of 1.5 mol/kg. Solutions were also prepared of each natural oil alone (5.5% by weight with an appropriate amount of isopropanol as a carrier diluent), and of the polar organic solvent alone (the percent by weight indicated in Table 20 with an appropriate amount of isopropanol as a carrier diluent). Treated Groups for each solution were prepared by treating filter paper, 90 mm in diameter, with 1.0 mL of solution and allowing it to air dry for four hours. A known number of adults (usually 10) were added to each treated dish, four hours after treatment. Bed bug mortality was assessed immediately after infestation and at 1-hour, 2-hour, 4-hour, 6-hour, 8-hour, 10 hour, 12-hour, and 24-hour intervals, and at 24-hour intervals thereafter until 14 days after infestation. Adult bed bugs were counted dead if they were unresponsive when stimulated.

[6] = […] neem oil + named solvent in isopropanol, 4 h dried residue, 3 weeks after infestation
[7] = […] neem oil + […] named solvent in isopropanol, 4 h dried residue
[8] = […] neem oil + […] named solvent in isopropanol, 4 h dried residue, observed until 14 days

Compound	% Eclosion (bed bug eggs [1]; [6])	Time to Max Mortality (adult bed bugs [2]; [7])	Max. Mortality (adult bed bugs [2]; [8])	Time to Max Mortality (adult bed bugs [3])	Max. Mortality (adult bed bugs [3])	other results
CC(O)c1ccccc1 (stereo not shown) [1-Phenylethanol]	0%	24 h	100%	–	–	–
O=C(c1ccc(O)cc1O)c1ccc(O)cc1O [2,2′-4,4′ Tetrahydroxybenzophenone]	0%	24 h	100%	–	–	–
CC(C)CC(O)CC(C)C [2,6-Dimethyl-4-heptanol]	–	–	–	14 days	20%	–
CCCCCCC(CO)CCCC (stereo not shown) [2-Butyl-1-octanol]	–	–	–	8 days	100%	–
CCCCC(CC)CO (stereo not shown) [2-Ethyl-1-hexanol]	0%	–	–	–	–	Max. Mortality (adult bed bugs [2]; in vivo): 100%; Time to Max Mortality (adult bed bugs [2]; in vivo): 72 h
CC(C)(O)c1ccccc1 [2-Phenyl-2-propanol]	–	–	–	1 days	100%	–
CC(C)O [2-Propanol (IPA), 2-Propanol]	–	140 h	40%	–	–	–
CCCCCCCCC(CO)CCCCCC (stereo not shown) [2-hexyl-1-decanol]	–	–	–	14 days	100%	–
Cc1ccc(O)c(C=O)c1 [2-hydroxy-5-methyl benzaldehyde]	–	–	–	1 days	100%	–
CC(=O)OC1CCCCC1C(C)(C)C (stereo not shown) [2-tert-Butylcyclohexylacetate]	20%	96 h	100%	–	–	–
CC(=O)c1ccc(C)cc1C [2′,4′-Dimethylacetophenone]	0%	24 h	100%	–	–	–
CC(=O)c1ccccc1O [2′-Hydroxyacetophenone]	–	–	–	1 days	100%	–
Cc1ccc(CO)cc1C [3,4-dimethylbenzyl alcohol]	–	–	–	14 days	100%	–
CC(=O)c1ccc(C)c(C)c1 [3′,4′-Dimethylacetophenone]	0%	48 h	100%	–	–	–
O=C(O)c1ccc(O)cc1 [4-Hydroxy benzoic acid]	–	–	–	1 days	100%	–
Cc1cc(C(=O)O)ccc1O [4-Hydroxy-3-methyl benzoic acid]	–	–	–	14 days	60%	–
CC(=O)c1ccc(O)cc1 [4′-Hydroxyacetophenone]	–	–	–	9 days	50%	–
CCCCC(=O)c1ccc(O)cc1 [4′-Hydroxyvalerophenone]	–	–	–	14 days	70%	–
CC(=O)c1ccc(C)cc1 [4′-Methylacetophenone]	0%	48 h	100%	–	–	–
CCC(=O)c1ccc(C)cc1 [4′-Methylpropiophenone]	0%	24 h	100%	–	–	–

Compound	% Eclosion (bed bug eggs [1]; [6])	Time to Max Mortality (adult bed bugs [2]; [7])	Max. Mortality (adult bed bugs [2]; [8])	Time to Max Mortality (adult bed bugs [3])	Max. Mortality (adult bed bugs [3])	other results
Cc1ccc(C(C)O)cc1 (stereo not drawn) [Alpha-4-dimethylbenzyl alcohol]	–	–	–	1 days	100%	–
O=Cc1ccccc1 [Benzaldehyde]	0%	336 h	100%	–	–	–
c1ccccc1 [Benzene]	–	–	–	14 days	40%	–
O=C(O)c1ccccc1 [Benzoic acid]	0%	–	–	–	–	Max. Mortality (adult bed bugs [2]; in vivo): 100%; Time to Max Mortality (adult bed bugs [2]; in vivo): 48 h
OCc1ccccc1 [Benzyl alcohol]	0%	24 h	100%	–	–	–
O=C(OCc1ccccc1)c1ccccc1 [Benzyl benzoate]	–	–	–	8 days	100%	–
COCc1ccccc1 [Benzyl methyl ether]	–	–	–	8 days	60%	–
CCCCOc1ccccc1 [Butyl phenyl ether]	–	–	–	6 days	100%	–
CCCC(=O)c1ccccc1 [Butyrophenone]	0%	24 h	100%	–	–	–
OC1CCCCC1 [Cyclohexanol]	60%	336 h	60%	–	–	–
O=C1CCCCC1 [Cyclohexanone]	40%	240 h	50%	–	–	–
O=C(c1ccccc1)C1CCCCC1 [Cyclohexyl phenyl ketone]	–	–	–	8 days	90%	–
c1ccc(COCc2ccccc2)cc1 [Dibenzyl ether]	–	–	–	7 days	90%	–
c1ccc(Oc2ccccc2)cc1 [Diphenyl ether]	–	–	–	3 days	100%	–
CCOC(C)=O [Ethyl acetate]	100%	336 h	30%	–	–	–
CCOC(=O)c1ccccc1 [Ethyl benzoate]	–	–	–	2 days	100%	–
CCCCCC(=O)c1ccccc1 [Hexanophenone]	0%	140 h	100%	–	–	–
CC(C)COC(=O)c1ccccc1 [Isobutyl benzoate]	–	–	–	8 days	90%	–
CC(C)C(=O)c1ccccc1 [Isobutyrophenone]	0%	48 h	100%	–	–	–
CC(=O)C1CCCCC1 [Methylcyclohexylketone]	80%	264 h	70%	–	–	–

Compound	% Eclosion (bed bug eggs [1]; [6])	Time to Max Mortality (adult bed bugs [2]; [7])	Max. Mortality (adult bed bugs [2]; [8])	Time to Max Mortality (adult bed bugs [3])	Max. Mortality (adult bed bugs [3])	other results
Oc1ccccc1 [Phenol]	–	–	–	1 days	100%	–
CCC(=O)c1ccccc1 [Propiophenone]	0%	24 h	100%	–	–	–
CCCOC(=O)c1ccc(O)cc1 [Propyl-4-hydroxybenzoate]	0%	24 h	100%	–	–	–
CCCCO [Solution 1-Butanol, 1-Butanol]	–	–	–	–	–	% Eclosion (bed bug eggs [1]; in vivo): 100%; Max. Mortality (adult bed bugs [2]; in vivo): 40%; Time to Max Mortality (adult bed bugs [2]; in vivo): 190 h
CCCCCCCCCCO [Solution 1-Decanol, 1-Decanol]	0%	–	–	–	–	Max. Mortality (adult bed bugs [2]; in vivo): 100%; Time to Max Mortality (adult bed bugs [2]; in vivo): 264 h
CCCCCCO [Solution 1-Hexanol, 1-Hexanol]	0%	–	–	–	–	Max. Mortality (adult bed bugs [2]; in vivo): 40%; Time to Max Mortality (adult bed bugs [2]; in vivo): 336 h
CCCCCCCCCO [Solution 1-Nonanol, 1-Nonanol]	–	–	–	2 days	100%	–
CCCCCCCCCCCCO [Solution 1-dodecanol, 1-dodecanol]	–	–	–	14 days	90%	–
CCC(C)O (stereo not shown) [Solution 2-Butanol, 2-Butanol]	–	–	–	–	–	% Eclosion (bed bug eggs [1]; in vivo): 100%; Max. Mortality (adult bed bugs [2]; in vivo): 20%; Time to Max Mortality (adult bed bugs [2]; in vivo): 336 h
CCCCCCC(C)O (stereo not shown) [Solution 2-Octanol, 2-Octanol]	–	–	–	2 days	100%	–
CCCCC(O)CC (stereo not shown) [Solution 3-Heptanol, 3-Heptanol]	–	–	–	14 days	30%	–
Cc1ccccc1 [Toluene]	–	–	–	14 days	50%	–
C/C=C/c1ccc(OC)cc1 [Trans-anethole]	–	–	–	5 days	100%	–
CCCCC(=O)c1ccccc1 [Valerophenone]	0%	24 h	100%	–	–	–
CC(C)=CCC/C(C)=C/CO [geraniol]	–	–	–	–	–	prevention of egg eclosion (bed bug eggs [4]): complete prevention of egg eclosion
Cc1ccc(C=O)cc1 [p-Tolualdehyde]	–	–	–	6 days	50%	–
Cc1ccc(C)cc1 [p-Xylene]	–	–	–	14 days	30%	–
Neem Oil	–	–	–	–	–	Max Mortality (adult bed bugs [5]): 10%
